# Patent publication US9597347B2, “Compositions for treating obesity and insulin resistance disorders” (President and Fellows of Harvard College, priority 2003, dated 2017)
# Tests used:
# [1] = test system: Wild-type N2 C. elegans worms; assay: Nile Red staining of fat accumulation in wild-type N2 C. elegans; type: in vivo; settings: 100 μM; for fat mobilization (fat content of the worms): L1 worms, vehicle DMSO
# H4IIEC3 cells = assay: Oxidation of 14C-palmitate in H4IIEC3 cells; type: cell-based; settings: resveratrol 10 μM in 1% DMSO, AICAR 500 μM in H2O, metformin 1 mM in H2O; 4 hours; vehicle = 1
# Protocol: (§1) Oxidation of 14C-palmitate to acid-soluble products (modified from H4IIEC3 cells [Witters, L. A. and B. E. Kemp, Insulin activation of acetyl-CoA carboxylase accompanied by inhibition of the 5′-AMP-activated protein kinase. J Biol Chem, 1992. 267(5): p. 2864-7] and HepG2 cells were maintained as described above. Cells (10^6 cells/T25) were seeded in a T25 flask one day prior to the experiment. On the day of the experiment cells were washed with assay buffer (114 mM NaCl, 4.7 mM KCL, 1.2 mM KH2PO4, 1.2 mM MgSO4, 11 mM glucose) before labeling with 14C-palmitate (0.4 μCi/ml) in presence of vehicle, or resveratrol (10 μM), or AICAR (500 μM) for 4 hours.
# (§2) At the end of incubation, the cap of each T25 flask was replaced with a stopper and a 1′×1.5″ Whatman filter paper soaked with 250 μl 2N NaOH. Each flask was injected with 2 ml of 6N HCL, placed in a horizontal position for 10 minutes and left standing overnight. The next morning, 1 ml H2O and 61 μl NaOH were added to a glass scintillation vial and the filter papers from each T25 flask were transferred to their respective vial. 10 ml Aquasol was added to each vial and allowed to stand for 2 hours, after which the vials were vortexed to dissolve the […] and counted in the scintillation counter. The results were expressed as nmols/h/106 cells and shown as the fold effect. ^14CO2 production ranged from 0.3 to 1.8 nmols/h/106 cells. The experiment was repeated three times.
# HepG2 cells = assay: Oxidation of 14C-palmitate in HepG2 cells; type: cell-based; settings: resveratrol 10 μM in 1% DMSO, AICAR 500 μM in H2O, metformin 1 mM in H2O; 4 hours; vehicle = 1
# Protocol: as §1, §2
# [2] = test system: Wild-type N2 C. elegans worms; assay: Nile Red staining of fat accumulation in wild-type N2 C. elegans; type: in vivo; settings: 0, 1 or 10 mM, overnight
# Protocol: Wild-type N2 C. elegans worms were grown on OP50 bacteria and exposed overnight to vehicle (0.1% ethanol) alone or with 10, 50 or 100 μM of resveratrol (in ethanol). Fat accumulation was visualized with Nile Red staining, as described further below and in Ashrafi K, et al. Nature 421:268-27 (2003).
# Synchronized starved L1 worms were grown in the presence of Nile Red. Strains were grown on NGM plates at 25° C. for approximately 48 hours until the young adult stage was reached. 20-30 young adult worms were then washed 2× with M9 buffer and transferred to new NGM/Nile red experimental plates that contained either OP50 or HTT5 E. coli carrying the L4440 RNAi control vector. For experiments comparing the effect of nicotinamide and resveratrol on fat mobilization, OP50 plates were coated with vehicle alone or Nicotinamide (in PBS), or vehicle alone and Resveratrol (in Ethanol or DMSO).
# Resveratrol (Indofine #024964) was dissolved in Ethanol or DMSO to a 10 mM stock solution. Resveratrol was added to 60 mm NGM agar dishes containing either OP50 or RNAi expressing bacteria (HT115) to a final concentration of 10 μm, 50 μm, and 100 μM. Nile Red was also added to plates to a final concentration of 0.05 μg/ml. Nicotinamide (Supelco #47865-U) was diluted in PBS including Nile Red and added to […] dishes containing OP50 to a final concentration of 1 mM, 10 mM, or 100 mM.
# Nile Red: Nile Red Powder (Sigma #N-3013) was dissolved in acetone at 500 μg/ml, diluted in 1× Phosphate Buffered Saline (PBS) including appropriate drug and applied to surface of Nematode Growth Media (NGM) plates previously seeded with OP50 or RNAi bacteria, at a final concentration of 0.05 μg/ml. Fat content was monitored and recorded by fluorescence microscopy.
# Nile Red Staining was visualized by using a Nikon TE2000S microscope equipped with a CY3 filter (emission 535-685 nm). Images were captured using a SPOT RT monochrome digital camera attached to the Nikon Microscope with SPOT RT software v3.5. All Nile red images were acquired using identical settings and exposure times and then changed to red palette.
# [3] = test system: TNF-alpha treated adipocytes; assay: Radioactive glucose uptake in TNF-alpha treated, insulin resistant adipocytes; type: cell-based; settings: resveratrol 5 μM or 15 μM; roziglitazone 4 μM (positive control); with TNF-alpha
# Protocol: Adipocytes were treated with TNF-alpha to induce insulin resistance as described in Kabayama et al., Glycobiology 15:21-29 (2005) and Wu et al., Mol. Cell 3:151-8 (1999).
# [4] = test system: phosphorylation of AMPK on threonine 172 and of ACC on serine 79; assay: Western analysis of AMPK and ACC phosphorylation in CHO-HIR cells; type: cell-based; settings: resveratrol 12.5, 25 or 50 μM; AICAR 500 μM (positive control); 30 minutes; serum-free overnight
# Protocol: CHO-HIR mammalian cells were washed in PBS and incubated overnight in serum-free DMEM before treatment with 500 μM AICAR (positive control) or 12.5 μM, 25 μM or 50 μM resveratrol. Cells were harvested after 30 minutes and lysates were immediately boiled in SDS and subjected to Western analysis with site-specific antibodies. Phosphorylation of AMPK at Thr172 indicates activation of the kinase. Active AMPK phosphorylates and inactivates ACC at serine 79.
# CHO cells were also treated with 500 μM AICAR (positive control), DMSO, 100 nM, 500 nM, 2.5 μM, 12.5 μM, 25 μM, or 50 μM resveratrol and subject to Western Blot analysis as described above. Western blots were stripped and re-probed for phosphorylated (active) AMPK, total AMPK, phosphorylated acetyl CoA carboxylase (ACC), which is the downstream target of AMPK, and tubulin, which served as a loading control.
# C. elegans worms = assay: Nile Red fat staining in C. elegans fed RNAi bacteria; type: in vivo; settings: RNA inactivation of TOC1.8 (AMPK homolog) or F41E7.3 (COT homolog)
# Protocol: The role of Sir2.1 in fat metabolism was shown in C. elegans worms in which Sir2.1 was RNA inactivated. Young adult worms were grown to adulthood in the presence of bacteria that carry RNAi vector alone or vector encoding Sir2.1 RNAi (R11A8.4), as described below. These worms were grown in the presence or absence of resveratrol, and stained with Nile-Red as described below.
# We have examined the C. elegans database and found two gene products that are highly related to mammalian AMPK, TOC1.8 and Par2.3; five genes encoding homologs of CPT-1 and one gene encoding a homolog of COT. C. elegans worms were incubated with bacteria carrying RNAi vector alone, or interfering RNA against TOC1.8 or F41E7.3, a C. elegans homologue of COT in the presence or absence of AICAR. Fat accumulation was visualized with Nile-Red, as described below. […] Thus, AICAR/AMPK signaling to fatty acid oxidation is conserved in worms and mammalian cells.
# The effect of TOC1.8 and COT inactivation was then investigated in C. elegans incubated with resveratrol. C. elegans worms were incubated with bacteria carrying RNAi vector alone, or a vector encoding TOC1.8 or COT interfering RNA in the presence or absence of resveratrol. Fat accumulation was visualized with Nile-Red, as described below.
# RNAi plates were seeded with HTT5 E. coli carrying either the L4440 RNAi vector control or the specific RNAi clones T01C8.1, AMPK; R11A8.4, sir-2.1; or F41E7.6 COT in the presence or absence of 100 μM resveratrol. Young adults were transferred to plates containing the appropriate vector, Nile Red stain and drug then maintained at 25° C. Nile Red staining was assessed 24 hours after resveratrol treatment by UV microscopy.
# HT115 E. Coli carrying the RNAi vector, L4440, were used for maintenance feeding. Bacteria containing experimental RNAi clones were cultured in 10 ml Luria Broth media containing 50 μg/ml ampicillin for 18 hours. 350 μl of each culture was spotted to a 60 mm dish containing NGM agar, 6 mM IPTG and 25 μg/ml carbenicillin. After overnight incubation (at room temp), Nile Red was added on top of each dish to a final concentration of 0.05 μg/ml along with the experimental compounds indicated in the figure legends. Nile Red staining was assessed after 24 hrs by UV microscopy. For each batch of RNAi clones tested, L4440 (vector alone) was included. […] All phenotypes were confirmed by at least three additional rounds of testing.
smiles,measurement,setting,value
"C(=C/c1ccccc1)/c1ccccc1 [cis-stilbene, cis-Stilbene]",fat staining,"[1]; L1 animals, 48 hours, control 2.5% v/v DMSO",No significant effect on worm fat staining
CN(C)C(=N)N=C(N)N [Metformin],14C-CO2 production (Fold Effect),H4IIEC3 cells,2 Fold Effect
same,14C-CO2 production (Fold Effect),HepG2 cells,3.5 Fold Effect
"Oc1cc(O)cc(/C=C/c2ccc(O)c(O)c2)c1 [piceatannol, 3,5,3′,4′-Tetrahydroxy-trans-stilbene]",fat mobilization (fat content of the worms),[1]; 48 hours,stimulate fat mobilization
"NC(=O)c1cccnc1 [nicotinamide, reference compound]",fat accumulation,[2],concentration dependent increase in fat accumulation
"CN(CCOc1ccc(CC2SC(=O)NC2=O)cc1)c1ccccn1 (centres unmarked) [roziglitazone, reference compound]",radioactive glucose uptake / insulin sensitivity,[3],increases the uptake of radioactive glucose
"O=C(/C=C/c1ccc(O)c(O)c1)c1ccc(O)cc1O [butein, 3,4,2′,4′-Tetrahydroxychalcone]",fat mobilization (fat content of the worms),[1]; 48 hours,stimulate fat mobilization
"O=c1c(O)c(-c2ccc(O)c(O)c2)oc2cc(O)cc(O)c12 [quercetin, 3,5,7,3′,4′-Pentahydroxyflavone]",fat mobilization (fat content of the worms),[1]; 48 hours,stimulate fat mobilization
"NC(=O)c1ncn([C@@H]2O[C@H](CO)[C@@H](O)[C@H]2O)c1N [AICAR, 5-aminoimidazole-4-carboxamide-1-beta-D-ribofuranoside, reference compound]",14C-CO2 production (Fold Effect),H4IIEC3 cells,2.3 Fold Effect
same,phosphorylation of AMPK (threonine 172) and ACC (serine 79),[4],stimulates phosphorylation of AMPK and ACC
same,fat mobilization,C. elegans worms,inhibits AICAR-stimulated fat mobilization
same,14C-CO2 production (Fold Effect),HepG2 cells,5 Fold Effect
"O=c1c(O)c(-c2ccc(O)c(O)c2)oc2cc(O)ccc12 [fisetin, 3,7,3′,4′-Tetrahydroxyflavone]",fat mobilization (fat content of the worms),[1]; 48 hours,stimulate fat mobilization
"CSc1ccc(/C=C/c2cc(O)cc(O)c2)cc1 [3,5-dihydroxy-4′-thiomethyl-trans-stilbene]",fat staining,"[1]; 24 hours, control 1% v/v DMSO",Significant reduction of fat staining
